Measured values from patent publication US12534748B2, “Engineered beta-subunit of tryptophan synthase for production of non-canonical amino acids” (California Institute of Technology, priority 2015, dated 2026).

Legend:
[1] = biological target: T1, Thermotoga maritima TrpB variant TmTrpB^T292S, SEQ ID NO: 26 (Thermotoga maritima, UniProt P50909, T292S); assay: Tryptophan formation from L-serine and indole, kinetics of TmTrpB^T292S; assay type: biochemical
T1 sequence (P50909 with tags, fused parts or gaps T292S): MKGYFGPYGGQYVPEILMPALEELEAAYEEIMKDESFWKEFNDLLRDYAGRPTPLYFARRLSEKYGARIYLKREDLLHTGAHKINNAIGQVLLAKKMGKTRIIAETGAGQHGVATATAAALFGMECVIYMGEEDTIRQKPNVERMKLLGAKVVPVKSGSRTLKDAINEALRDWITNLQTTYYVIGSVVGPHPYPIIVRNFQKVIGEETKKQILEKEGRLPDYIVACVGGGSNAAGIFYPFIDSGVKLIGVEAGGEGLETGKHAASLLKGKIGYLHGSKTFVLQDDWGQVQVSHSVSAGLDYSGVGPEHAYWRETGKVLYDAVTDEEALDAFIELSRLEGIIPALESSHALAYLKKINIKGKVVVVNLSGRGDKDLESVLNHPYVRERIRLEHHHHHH
Protocol: Kinetics and UV-Vis Spectroscopy. Data were collected between 550 and 250 nm on a UV1800 Shimadzu spectrophotometer (Shimadzu) using 0.25-20 μM of enzyme in 200 mM potassium phosphate (pH 8.0) in a quartz cuvette. Samples were incubated at 75° C. for >3 min to ensure a stable temperature was reached. PfTrpB activity (kcat) was measured by monitoring tryptophan formation at 290 nm using Δe290=1.89 mM^−1·cm^−1.
Cloning, expression, and purification of the different orthologs. The genes encoding AfTrpB (UNIPROT ID O28672), TmTrpB (UNIPROT ID P50909) and EcTrpB (UNIPROT ID P0A879) were obtained from IDT and cloned into pET22(b)+ using Gibson Assembly. Protein expression was carried out in E. coli BL21 E. cloni Express cells (Lucigen) by inoculating 10-mL Terrific Broth (with 100 μg/mL ampicillin (TBamp)) with a single colony and incubated over night at 37° C. and 250 rpm. These overnight cultures were used to scale up to 500-mL TBamp expression cultures, which were grown by shaking at 250 rpm and 37° C. for ˜3 h or until an OD600 of 0.8 was reached. Then, after chilling the cultures on ice for 20 min, induction was conducted by the addition of IPTG to a final concentration of 1 mM. Induced cultures were allowed to grow at 250 rpm and 20° C. for another 20 h. After centrifugation, pelleted cells were frozen and stored at −20° C. until further use. For protein purification, thawed cells were resuspended in 50 mM potassium phosphate buffer (KPi, pH 8, 20 mM imidazole and 100 mM NaCl (buffer A)), with 200 μM PLP. Lysis was performed by adding BugBuster (Novagen) and incubating for 15 min at 37° C. Once cells were lysed, they were centrifuged to obtain the soluble protein-rich fraction. In the case of TmTrpB (but not for AfTrpB or EcTrpB), the lysate was then incubated at 75° C. for 20 min and was subjected to another centrifugation step. […]
The next homolog, TmTrpB, was examined. […] The variants without the T292S mutation lacked this probative absorbance peak, but the decrease at 428 nm and concomitant increase at 350 nm are consistent with a similar, though less pronounced activation.

[2] = biological target: T2, Pyrococcus furiosus TrpB variant PfTrpB^2G9 (T292S), SEQ ID NO: 10 (Pyrococcus furiosus, UniProt Q8U093, T292S); assay: Tryptophan formation from L-serine and indole, kinetics of PfTrpB^2G9; assay type: biochemical
T2 sequence (Q8U093 with tags, fused parts or gaps T292S): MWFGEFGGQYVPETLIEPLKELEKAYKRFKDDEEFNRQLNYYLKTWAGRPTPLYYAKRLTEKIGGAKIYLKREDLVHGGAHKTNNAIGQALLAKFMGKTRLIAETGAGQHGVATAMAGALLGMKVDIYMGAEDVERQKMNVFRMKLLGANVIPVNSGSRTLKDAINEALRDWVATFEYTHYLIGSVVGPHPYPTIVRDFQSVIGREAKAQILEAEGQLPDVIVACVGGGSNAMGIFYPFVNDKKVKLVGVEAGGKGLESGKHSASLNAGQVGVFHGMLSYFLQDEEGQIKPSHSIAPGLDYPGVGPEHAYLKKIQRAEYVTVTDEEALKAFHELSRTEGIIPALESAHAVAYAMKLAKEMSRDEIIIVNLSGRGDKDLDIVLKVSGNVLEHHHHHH
Protocol: Cloning, Expression, and Purification of PfTrpA and PfTrpB. The genes encoding PfTrpB (UNIPROT ID Q8U093) and PfTrpA (UNIPROT ID Q8U094) were obtained as gBlocks and cloned into pET22(b)+ for expression in E. coli BL21 E. cloni EXPRESS cells (Lucigen). Heterologous protein expression of PfTrpA and PfTrpB was performed in Terrific Broth with 100 μg/mL ampicillin (TBamp) and induced with 500 mM IPTG (final concentration 1 mM). PfTrpB was purified via a HisTrap HP column. PfTrpA was purified via a Q HP HiTrap column (flow-through), followed by ammonium sulfate precipitation, and hydrophobic interaction chromatography on a phenyl Sepharose HP HiTrap column (FIG. 3).
Kinetics and UV-Vis Spectroscopy.

## c1ccc2[nH]ccc2c1 [indole]
[1]; 75° C.
  kcat: 5.8 s⁻¹
[1]; relative to TmTrpA binding (TmTrpS)
  increase in kcat more than TmTrpA binding: 3 fold
[1]; with respect to wild type
  increase in kcat: 4 fold
[2]; 75° C.
  kcat: 1.1 s⁻¹
[2]; compared with PfTrpB
  increase in kcat: 3.5 fold
[2]; read-out: KM, indole, 75° C.
  Km: 14 µM
